How the values were obtained:
MDA-MB-468 = details: MDA-MB-468, 10 μM
LOX IMVI = assay: NCI SRB screening; assay type: cell-based, human; details: 10 μM
SN12C = details: 10 μM
TK-10 = details: TK-10, 10 μM
HL-60(TB) = details: HL-60(TB), 10 μM
NCI-H226 = details: NCI-H226, 10 μM
HCT-15 = details: HCT-15, 10 μM
NCI-H322M = assay: NCI SRB screening; details: 10 μM
A549/ATCC = details: 10 μM
NCI-H522 = details: NCI-H522, 10 μM
OVCAR-5 = details: OVCAR-5, 10 μM
RXF 393 = details: RXF 393, 10 μM
MDA-MB-231 = assay: SRB anti-proliferative assay; assay type: cell-based; details: Homo sapiens; MDA-MB-231, SRB, mean ± SE of 3
Protocol: (§1) All the newly prepared target conjugates (7, 8a–c, 9 and 10a–e) were investigated for the prospective growth inhibitory actions against three different cancer cell lines viz.; A-549, MDA-MB-231, and HCT-116, using the sulforhodamine B colorimetric (SRB) assay. Staurosporine, a clinically used antitumor drug, was co-assayed as a reference agent for the experiment.
(§2) Examination of the cytotoxic activity for the target conjugates was carried out in accordance with the SRB colorimetric assay protocol, as described previously.
(§3) In vitro anti-proliferative activity assay
(§4) Cells at a concentration of 0.50 x
(§5) Sulfo-Rhodamine-B stain (SRB) assay.
(§6) cell to the wall of the plate.
(§7) wells were prepared for each individual dose).
(§8) Unbound dye was removed by four

HCT-116 [1] = assay: SRB anti-proliferative assay; assay type: cell-based; details: Homo sapiens; HCT-116, SRB, mean ± SE of 3
Protocol: as §1, §2, §3, §4, §5, §6, §7, §8

ACHN = details: 10 μM
BT-549 = details: BT-549, 10 μM
HCT-116 [2] = details: HCT-116, 10 μM
MALME-3M = details: 10 μM
A-549 = assay: SRB anti-proliferative assay; assay type: cell-based; details: Homo sapiens, A549; A-549, SRB, mean ± SE of 3
Protocol: Staurosporine, a clinically used antitumor drug, was co-assayed as a reference agent for the experiment.
as §2, §3, §4, §5, §6, §7, §8

SW-620 = details: SW-620, 10 μM
SF-539 = details: SF-539, 10 μM
OVCAR-8 = details: OVCAR-8, 10 μM
SK-MEL-28 = details: SK-MEL-28, 10 μM
MOLT-4 = details: MOLT-4, 10 μM
IGROV1 = details: IGROV1, 10 μM
CCRF-CEM = details: 10 μM
NCI/ADR-RES = details: 10 μM
PC-3 = assay: NCI SRB screening; assay type: cell-based, human; details: PC-3, 10 μM
SK-OV-3 = details: SK-OV-3, 10 μM
HOP-92 = details: HOP-92, 10 μM
UACC-257 = details: UACC-257, 10 μM
NCI-H23 = details: NCI-H23, 10 μM
MDA-MB-231/ATCC = details: MDA-MB-231, 10 μM
EKVX = details: 10 μM
SNB-75 = details: SNB-75, 10 μM
SK-MEL-5 = details: SK-MEL-5, 10 μM
SF-268 = details: SF-268, 10 μM
OVCAR-3 = details: OVCAR-3, 10 μM
KM12 = details: KM12, 10 μM
NCI-H460 = assay: NCI SRB screening; assay type: cell-based, human; details: NCI-H460, 10 μM
UO-31 = details: UO-31, 10 μM
HS 578T = details: 10 μM
K-562 = details: K-562, 10 μM

Question: How did the GI % (MDA-MB-468) turn out when `CCCn1cc(/C=N/N=C2\C(=O)Nc3ccc(OC(F)(F)F)cc32)c2ccccc21` [Compound 8b] was run?
Answer: Its GI % is 11%.

Question: What about the GI % (LOX IMVI) of the same molecule?
Answer: Its GI % is “– (Only GI % higher than 10% are shown)”.

Question: And the GI % (SN12C)?
Answer: Its GI % is “– (Only GI % higher than 10% are shown)”.

Question: And the GI % (TK-10)?
Answer: Its GI % is “– (Only GI % higher than 10% are shown)”.

Question: And the GI % (HL-60(TB))?
Answer: The GI % was 12%.

Question: And the GI % (NCI-H226)?
Answer: The GI % was “– (Only GI % higher than 10% are shown)”.

Question: What about the GI % (HCT-15) of the same molecule?
Answer: The GI % was 23%.

Question: And the GI % (NCI-H322M)?
Answer: The GI % was “– (Only GI % higher than 10% are shown)”.

Question: What about the GI % (A549/ATCC) of the same molecule?
Answer: Its GI % is 28%.

Question: What about the GI % (NCI-H522) of the same molecule?
Answer: Its GI % is 19%.

Question: And the GI % (OVCAR-5)?
Answer: The GI % was “– (Only GI % higher than 10% are shown)”.

Question: What about the GI % (RXF 393) of the same molecule?
Answer: The GI % was “– (Only GI % higher than 10% are shown)”.

Question: What about the IC50 (MDA-MB-231) of the same molecule?
Answer: Its IC50 is 8.9 ± 0.61 µM.

Question: And the IC50 (HCT-116 [1])?
Answer: Its IC50 is 19.1 ± 1.34 µM.

Question: And the GI % (ACHN)?
Answer: The GI % was 15%.

Question: And the GI % (BT-549)?
Answer: The GI % was “– (Only GI % higher than 10% are shown)”.

Question: And the GI % (HCT-116 [2])?
Answer: The GI % was 21%.

Question: What about the GI % (MALME-3M) of the same molecule?
Answer: Its GI % is “– (Only GI % higher than 10% are shown)”.

Question: What about the IC50 (A-549) of the same molecule?
Answer: Its IC50 is 9.2 ± 0.78 µM.

Question: What about the GI % (SW-620) of the same molecule?
Answer: Its GI % is “– (Only GI % higher than 10% are shown)”.

Question: What about the GI % (SF-539) of the same molecule?
Answer: The GI % was “– (Only GI % higher than 10% are shown)”.

Question: What about the GI % (OVCAR-8) of the same molecule?
Answer: Its GI % is 15%.

Question: What about the GI % (SK-MEL-28) of the same molecule?
Answer: The GI % was “– (Only GI % higher than 10% are shown)”.

Question: And the GI % (MOLT-4)?
Answer: The GI % was 50%.

Question: And the GI % (IGROV1)?
Answer: Its GI % is “– (Only GI % higher than 10% are shown)”.

Question: And the GI % (CCRF-CEM)?
Answer: The GI % was 52%.

Question: What about the GI % (NCI/ADR-RES) of the same molecule?
Answer: The GI % was 15%.

Question: What about the GI % (PC-3) of the same molecule?
Answer: The GI % was 32%.

Question: What about the GI % (SK-OV-3) of the same molecule?
Answer: Its GI % is “– (Only GI % higher than 10% are shown)”.

Question: And the GI % (HOP-92)?
Answer: Its GI % is “– (Only GI % higher than 10% are shown)”.

Question: What about the GI % (UACC-257) of the same molecule?
Answer: Its GI % is “– (Only GI % higher than 10% are shown)”.

Question: And the GI % (NCI-H23)?
Answer: The GI % was 12%.

Question: What about the GI % (MDA-MB-231/ATCC) of the same molecule?
Answer: Its GI % is “– (Only GI % higher than 10% are shown)”.

Question: And the GI % (EKVX)?
Answer: Its GI % is 40%.

Question: And the GI % (SNB-75)?
Answer: The GI % was “– (Only GI % higher than 10% are shown)”.

Question: What about the GI % (SK-MEL-5) of the same molecule?
Answer: The GI % was “– (Only GI % higher than 10% are shown)”.

Question: And the GI % (SF-268)?
Answer: Its GI % is “– (Only GI % higher than 10% are shown)”.

Question: What about the GI % (OVCAR-3) of the same molecule?
Answer: The GI % was “– (Only GI % higher than 10% are shown)”.

Question: What about the GI % (KM12) of the same molecule?
Answer: Its GI % is “– (Only GI % higher than 10% are shown)”.

Question: What about the GI % (NCI-H460) of the same molecule?
Answer: The GI % was 11%.

Question: What about the GI % (UO-31) of the same molecule?
Answer: Its GI % is 19%.

Question: What about the GI % (HS 578T) of the same molecule?
Answer: The GI % was “– (Only GI % higher than 10% are shown)”.

Question: What about the GI % (K-562) of the same molecule?
Answer: The GI % was 33%.
